Results taken from PubChem BioAssay AID330 (DTP/NCI, 2004).
Several values for one entry are separate records, joined by “and”; a condition that tells them apart may be missing. Equal entries are not always repeated. Inconclusive results and toxic doses are left out.

Test system: P388 leukemia ip, CD2F1 mice, survival T/C
Experiment: NCI In Vivo Anticancer Drug Screen. Data for tumor model P388 Leukemia (intraperitoneal) in CD2F1 (CDF1) mice
Details: endpoint: median survival time, higher = longer survival
In short: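 Mice carrying the transplanted tumor received test compound or vehicle. Survival was recorded in each group, and the value is the treated-group measurement divided by that of the vehicle-treated control group.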

[1] = dose: 50.0 mg/kg/injection, schedule: Q01DX005 (ip), vehicle: saline with Tween-80
[2] = dose: 100.0 mg/kg/injection, schedule: Q01DX005 (ip), vehicle: saline with Tween-80
[3] = dose: 200.0 mg/kg/injection, schedule: Q01DX005 (ip), vehicle: saline with Tween-80
[4] = dose: 60.0 mg/kg/injection, schedule: Q01DX005 (ip), vehicle: saline with Tween-80
[5] = dose: 120.0 mg/kg/injection, schedule: Q01DX005 (ip), vehicle: saline with Tween-80
[6] = dose: 240.0 mg/kg/injection, schedule: Q01DX005 (ip), vehicle: saline with Tween-80
[7] = dose: 50.0 mg/kg/injection, schedule: Q01DX005 (ip), vehicle: Klucel (hydroxypropylcellulose) (HPC)
[8] = dose: 100.0 mg/kg/injection, schedule: Q01DX005 (ip), vehicle: Klucel (hydroxypropylcellulose) (HPC)
[9] = dose: 200.0 mg/kg/injection, schedule: Q01DX005 (ip), vehicle: Klucel (hydroxypropylcellulose) (HPC)
[10] = dose: 60.0 mg/kg/injection, schedule: Q01DX005 (ip), vehicle: Klucel (hydroxypropylcellulose) (HPC)
[11] = dose: 120.0 mg/kg/injection, schedule: Q01DX005 (ip), vehicle: Klucel (hydroxypropylcellulose) (HPC)
[12] = dose: 240.0 mg/kg/injection, schedule: Q01DX005 (ip), vehicle: Klucel (hydroxypropylcellulose) (HPC)
[13] = dose: 50.0 mg/kg/injection, schedule: Q01DX009 (ip), vehicle: saline
[14] = dose: 100.0 mg/kg/injection, schedule: Q01DX009 (ip), vehicle: saline
[15] = dose: 50.0 mg/kg/injection, schedule: Q01DX009 (ip), vehicle: Klucel (hydroxypropylcellulose) (HPC)
[16] = dose: 100.0 mg/kg/injection, schedule: Q01DX009 (ip), vehicle: Klucel (hydroxypropylcellulose) (HPC)
[17] = dose: 200.0 mg/kg/injection, schedule: Q01DX009 (ip), vehicle: Klucel (hydroxypropylcellulose) (HPC)
[18] = dose: 50.0 mg/kg/injection, schedule: Q01DX009 (ip), vehicle: saline with Tween-80
[19] = dose: 100.0 mg/kg/injection, schedule: Q01DX009 (ip), vehicle: saline with Tween-80
[20] = dose: 200.0 mg/kg/injection, schedule: Q01DX009 (ip), vehicle: saline with Tween-80
[21] = dose: 200.0 mg/kg/injection, schedule: Q01DX009 (ip), vehicle: saline

C1=C(c2ccccc2)Oc2ccccc2[P+]1(c1ccccc1)c1ccccc1
T/C (dose: 0.78 mg/kg/injection, schedule: Q01DX005 (ip), vehicle: Klucel (hydroxypropylcellulose) (HPC)): 100 % of control
T/C (dose: 1.56 mg/kg/injection, schedule: Q01DX005 (ip), vehicle: Klucel (hydroxypropylcellulose) (HPC)): 109 % of control
T/C (dose: 3.12 mg/kg/injection, schedule: Q01DX005 (ip), vehicle: Klucel (hydroxypropylcellulose) (HPC)): 99 % of control

CS(=O)(=O)c1nnnn1-c1ccccc1
T/C (dose: 12.5 mg/kg/injection, schedule: Q04DX003 (ip), vehicle: saline with Tween-80): 106 % of control
T/C (dose: 25.0 mg/kg/injection, schedule: Q04DX003 (ip), vehicle: saline with Tween-80): 106 % of control
T/C (dose: 50.0 mg/kg/injection, schedule: Q04DX003 (ip), vehicle: saline with Tween-80): 102 % of control and 112 % of control
T/C (dose: 100.0 mg/kg/injection, schedule: Q04DX003 (ip), vehicle: saline with Tween-80): 105 % of control

CC(=O)Oc1ccc2ccc3nonc3c2c1
T/C [1]: 99 % of control
T/C [2]: 99 % of control
T/C [3]: 94 % of control

O=C(O)c1cc(Nc2nc(Cl)nc(Cl)n2)ccc1-c1c2ccc(=O)cc-2oc2cc(O)ccc12
T/C [4]: 115 % of control
T/C [5]: 119 % of control
T/C [6]: 117 % of control

S=C1NCC(c2ccccc2)(c2ccccc2)N1
T/C (dose: 6.25 mg/kg/injection, schedule: Q04DX003 (ip), vehicle: Klucel (hydroxypropylcellulose) (HPC)): 103 % of control
T/C (dose: 12.5 mg/kg/injection, schedule: Q04DX003 (ip), vehicle: Klucel (hydroxypropylcellulose) (HPC)): 98 % of control

COC(=O)c1cc(OCC#CC#CCOc2ccc(O)c(C(=O)OC)c2)ccc1O
T/C [4]: 95 % of control
T/C [5]: 89 % of control
T/C [6]: 86 % of control

CCOC(=O)C1=C(N)OC(c2ccccc2)=C(C#N)C1c1ccc(C)cc1 (stereo unspecified)
T/C [7]: 110 % of control
T/C [8]: 107 % of control
T/C [9]: 100 % of control

CC(C)(C)N1CCC1CN (stereo unspecified)
T/C (dose: 25.0 mg/kg/injection, schedule: Q01DX005 (ip), vehicle: saline): 90 % of control
T/C (dose: 50.0 mg/kg/injection, schedule: Q01DX005 (ip), vehicle: saline): 100 % of control
T/C (dose: 100.0 mg/kg/injection, schedule: Q01DX005 (ip), vehicle: saline): 104 % of control
T/C (dose: 200.0 mg/kg/injection, schedule: Q01DX005 (ip), vehicle: saline): 100 % of control

Clc1ccc(Nc2c3ccccc3nc3c2cnn3-c2ccccc2)cc1
T/C [10]: 89 % of control
T/C [11]: 99 % of control and 93 % of control
T/C [12]: 100 % of control and 90 % of control

c1cc[n+](CCC2OCCO2)cc1
T/C (dose: 12.5 mg/kg/injection, schedule: Q01DX009 (ip), vehicle: saline): 109 % of control
T/C (dose: 25.0 mg/kg/injection, schedule: Q01DX009 (ip), vehicle: saline): 109 % of control
T/C [13]: 100 % of control
T/C [14]: 108 % of control

[N-]=[N+]=CC(=O)CCCCC1=CCCC1=O
T/C (dose: 31.75 mg/kg/injection, schedule: Q01DX001 (ip), vehicle: saline with Tween-80): 103 % of control
T/C (dose: 63.5 mg/kg/injection, schedule: Q01DX001 (ip), vehicle: saline with Tween-80): 93 % of control
T/C (dose: 127.0 mg/kg/injection, schedule: Q01DX001 (ip), vehicle: saline with Tween-80): 94 % of control

Cc1c2cc[n+](CCN3CCCCC3)cc2c(C)c2c1[nH]c1ccc(O)cc12
T/C (dose: 1.56 mg/kg/injection, schedule: Q04DX003 (ip), vehicle: suspension in saline): 152 % of control
T/C (dose: 3.12 mg/kg/injection, schedule: Q04DX003 (ip), vehicle: suspension in saline): 152 % of control
T/C (dose: 6.25 mg/kg/injection, schedule: Q04DX003 (ip), vehicle: saline): 178 % of control and 201 % of control
T/C (dose: 12.5 mg/kg/injection, schedule: Q04DX003 (ip), vehicle: saline): 178 % of control
T/C (dose: 12.5 mg/kg/injection, schedule: Q04DX003 (ip), vehicle: suspension in saline): 164 % of control
T/C (dose: 25.0 mg/kg/injection, schedule: Q04DX003 (ip), vehicle: saline): 190 % of control and 194 % of control
T/C (dose: 25.0 mg/kg/injection, schedule: Q04DX003 (ip), vehicle: suspension in saline): 164 % of control
T/C (dose: 50.0 mg/kg/injection, schedule: Q04DX003 (ip), vehicle: saline): 255 % of control
T/C (dose: 50.0 mg/kg/injection, schedule: Q04DX003 (ip), vehicle: suspension in saline): 152 % of control
T/C (dose: 100.0 mg/kg/injection, schedule: Q04DX003 (ip), vehicle: saline): 216 % of control
T/C (dose: 100.0 mg/kg/injection, schedule: Q04DX003 (ip), vehicle: suspension in saline): 169 % of control
T/C (dose: 200.0 mg/kg/injection, schedule: Q04DX003 (ip), vehicle: saline): 104 % of control
T/C (dose: 200.0 mg/kg/injection, schedule: Q04DX003 (ip), vehicle: suspension in saline): 98 % of control

CCOC(=O)CCS(=O)c1ccccc1 (stereo unspecified)
T/C [15]: 114 % of control
T/C [16]: 109 % of control
T/C [17]: 104 % of control

COc1cc(-c2n[nH]c(=O)o2)cc(OC)c1OC
T/C [15]: 105 % of control
T/C [16]: 100 % of control
T/C [17]: 105 % of control

Fc1cccc(Cl)c1C(Nc1nccs1)Nc1nccs1
T/C [10]: 107 % of control
T/C [11]: 103 % of control
T/C [12]: 104 % of control

O=C1/C(=C/C=C/c2ccccc2)C(=S)SN1Cc1ccco1
T/C [15]: 96 % of control
T/C [16]: 97 % of control

CC(C)(C)CC(C)(C)c1ccc(OCc2cccc(F)c2)cc1
T/C [18]: 97 % of control
T/C [19]: 97 % of control
T/C [20]: 100 % of control

O=C(/C(=C\c1ccc(F)cc1)S(=O)(=O)c1ccc(F)cc1)c1ccccc1
T/C [1]: 110 % of control
T/C [2]: 102 % of control
T/C [3]: 103 % of control

C1CN2CCN1CC2.[Cl][Pt]([Cl])[Cl]
T/C (dose: 100.0 mg/kg/injection, schedule: Q04DX002 (ip), vehicle: saline with Tween-80): 117 % of control
T/C (dose: 200.0 mg/kg/injection, schedule: Q04DX002 (ip), vehicle: saline with Tween-80): 117 % of control

OC(c1ccccc1)C(O)C(c1ccccc1)N1CCCCC1 (stereo unspecified)
T/C [14]: 92 % of control
T/C [21]: 92 % of control

CC(=O)OC(C)N(C(C)=O)c1ncc([N+](=O)[O-])s1 (stereo unspecified)
T/C (dose: 25.0 mg/kg/injection, schedule: Q01DX009 (ip), vehicle: saline with Tween-80): 100 % of control
T/C [18]: 101 % of control
T/C [19]: 106 % of control
T/C [20]: 110 % of control

CON/C=C(C#N)/C=C/C=Nc1ccc(S(=O)(=O)Nc2onc(C)c2C)cc1
T/C [18]: 100 % of control
T/C [19]: 92 % of control
T/C [20]: 98 % of control

Nc1nc2c(c(=O)[nH]1)N(C(=O)CCCC(=O)O)C(CN(C(=O)CCCC(=O)O)c1ccc(C(=O)NC(CCC(=O)O)C(=O)O)cc1)CN2 (stereo unspecified) (tested in a mixture with another compound)
T/C [13]: 94 % of control
T/C [14]: 110 % of control
T/C [21]: 95 % of control

Cc1c(N(C)C)nc2cc(N(C)C)ccc2c1Cl
T/C [18]: 91 % of control
T/C [19]: 92 % of control
T/C [20]: 91 % of control

CCC12OCC(C)(C)N1OC(=O)N2c1ccccc1 (stereo unspecified)
T/C [7]: 96 % of control
T/C [8]: 96 % of control
T/C [9]: 97 % of control

NNS(=O)(=O)c1cc(C(=O)O)cc(C(=O)O)c1
T/C (dose: 100.0 mg/kg/injection, schedule: Q01DX001 (ip), vehicle: saline with Tween-80): 109 % of control
T/C (dose: 200.0 mg/kg/injection, schedule: Q01DX001 (ip), vehicle: saline with Tween-80): 100 % of control
T/C (dose: 400.0 mg/kg/injection, schedule: Q01DX001 (ip), vehicle: saline with Tween-80): 90 % of control

Cc1nc(Nc2ccccc2)c(C#N)c(=O)[nH]1
T/C [4]: 86 % of control
T/C [5]: 86 % of control
T/C [6]: 86 % of control
